Assay results as given in the supplement of paper PMC10307832.

Assays:
Assay in all cases: relative viability (nuclei count vs DMSO), 5 days (fraction); higher = more cells survive
[1] = compound: CCOC(=O)CCNc1cc(N2CCc3ccccc3CC2)nc(-c2ccccn2)n1 [GSK-J4] + NC(=O)Nc1cc(-c2cccc(F)c2)sc1C(=O)N[C@H]1CCCNC1 [AZD7762] (partner 0.2 µM)
How it was run: (§1)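 Lung cancer cell lines, seeded in 1536-well plates, were treated the following day by pin tool with a single drug or with five library-drug doses (not always all listed) in √10 steps on top of a fixed anchor-drug dose. Cells were fixed and nuclei stained in one step after 5 days, and nuclei were counted. Relative viability is the nuclei count for treated wells divided by that for vehicle wells, reported as medians of duplicate plates.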

[2] = compound: CCOC(=O)CCNc1cc(N2CCc3ccccc3CC2)nc(-c2ccccn2)n1 [GSK-J4] + COc1cccc2cc(-c3nc([C@H]4CC[C@H](C(=O)O)CC4)n4ncnc(N)c34)[nH]c12 [OSI-027] (partner 0.5 µM)
How it was run: as §1

[3] = compound: CCOC(=O)CCNc1cc(N2CCc3ccccc3CC2)nc(-c2ccccn2)n1 [GSK-J4] + Cc1cc(Nc2cc(N3CCN(C)CC3)nc(Sc3ccc(NC(=O)C4CC4)cc3)n2)n[nH]1 [Tozasertib] (partner 0.1 µM)
How it was run: as §1

[4] = compound: CN1CCC(CC1)OC2=CC(=C(C=C2)NC3=NC=C4C(=N3)N(C(=O)N4C)C5CCCC5)OC [AZ3146] + Cc1nc(NC(=O)N2CCC[C@H]2C(N)=O)sc1-c1ccnc(C(C)(C)C(F)(F)F)c1 [Alpelisib] (partner 2 µM)
How it was run: as §1

Cell Line	relative viability ([1]; first compound 0.5 µM)	relative viability ([1]; first compound 1.581 µM)	relative viability ([1]; first compound 5 µM)	relative viability ([1]; first compound 15.81 µM)	relative viability ([1]; first compound 50 µM)	relative viability ([2]; first compound 0.5 µM)	relative viability ([2]; first compound 1.581 µM)	relative viability ([2]; first compound 5 µM)	relative viability ([2]; first compound 15.81 µM)	relative viability ([2]; first compound 50 µM)	relative viability ([3]; first compound 0.5 µM)	relative viability ([3]; first compound 1.581 µM)	relative viability ([3]; first compound 5 µM)	relative viability ([3]; first compound 15.81 µM)	relative viability ([3]; first compound 50 µM)	relative viability ([4]; first compound 0.253 µM)	relative viability ([4]; first compound 0.8 µM)	relative viability ([4]; first compound 2.53 µM)	relative viability ([4]; first compound 8 µM)	relative viability ([4]; first compound 0.08 µM)
NCI-H2342	0.624	0.525	0.531	0.557	0.362	0.669	0.626	0.662	0.615	0.699	0.427	0.664	0.482	0.557	0.529	–	–	–	–	–
NCI-H1944	0.492	0.64	–	0.414	0.427	0.466	0.399	0.309	0.296	0.355	0.257	0.238	0.248	0.243	0.255	0.845	0.991	0.825	0.861	–
SK-LU-1	–	–	–	–	–	0.339	0.318	0.258	0.292	0.218	0.306	0.28	0.289	0.326	0.276	1.05	1.15	1.23	0.571	0.892
HCC-44	0.95	0.939	0.962	1.11	1.05	0.51	0.31	–	0.387	0.483	0.809	0.803	–	0.646	0.688	0.805	0.797	0.807	0.859	0.676
201T	0.602	0.673	0.581	0.561	0.609	0.668	0.414	0.932	0.691	0.721	0.801	0.971	0.96	0.901	0.836	0.918	0.954	0.993	1	0.943
IA-LM	–	–	–	–	–	–	–	–	–	–	–	–	–	–	–	0.627	0.864	0.714	0.763	0.638
NCI-H661	–	–	–	–	–	0.694	0.645	0.559	0.542	0.435	0.355	0.3	0.357	0.335	0.413	0.549	0.565	0.689	1.03	0.729
NCI-H2087	1.09	1.25	1.05	1.23	0.8	0.552	–	0.851	0.542	0.421	0.265	–	0.281	0.217	0.251	1.04	1.19	1.11	0.953	1.03
NCI-H647	0.596	0.431	0.271	0.386	0.44	0.674	0.513	0.391	0.594	0.774	0.315	0.192	0.178	0.28	0.155	1.21	1.27	1.28	0.534	1.05
A-427	0.684	0.441	–	0.576	0.328	0.536	–	0.439	0.396	0.198	0.233	–	0.22	0.18	0.157	1.06	1.01	0.93	1.02	1.04
NCI-H520	–	–	–	–	–	0.33	0.22	0.278	0.248	0.257	0.439	–	0.497	0.39	0.425	0.943	0.791	0.834	1.04	0.689
NCI-H1755	0.42	0.622	0.294	0.4	0.387	0.623	0.468	0.571	0.553	0.509	0.585	0.582	0.553	0.531	0.581	0.989	0.848	0.953	0.917	0.919
NCI-H1975	0.783	0.633	–	0.63	0.858	0.692	0.677	0.46	0.675	0.681	0.721	0.716	0.539	0.659	0.798	0.627	0.671	0.616	0.301	0.658
ChaGo-K-1	0.873	–	0.774	0.912	0.766	0.591	0.419	0.441	0.533	0.428	0.221	0.213	0.236	0.236	0.21	–	–	–	–	–
BEN	0.694	0.634	0.441	0.567	0.426	0.334	0.249	–	0.315	0.212	0.514	0.41	0.609	0.375	0.492	0.967	1.06	1.07	0.895	–
SW 1573	–	–	–	–	–	0.657	0.423	0.507	0.519	0.211	0.206	0.129	0.164	0.199	0.177	0.762	0.762	0.894	0.757	0.843
EPLC-272H	0.206	0.23	0.162	0.138	0.147	0.313	0.255	0.261	0.293	0.192	0.385	0.174	0.443	0.146	0.172	0.925	0.933	0.973	0.964	0.706
LK-2	0.53	0.29	0.663	0.168	0.19	0.268	0.193	0.204	0.152	0.19	0.165	–	0.167	0.164	0.147	–	–	1.16	1.66	0.907
NCI-H23	0.206	0.388	0.254	0.239	0.265	0.657	0.363	0.535	0.41	0.392	0.333	0.397	0.373	0.281	0.249	0.668	0.676	0.744	0.738	0.591
